This is an account of results in ChEMBL document CHEMBL2346616, “Design and synthesis of novel pyrimido[4,5-b]azepine derivatives as HER2/EGFR dual inhibitors” (Bioorg Med Chem, 2013).

Assay [1] addresses Epidermal growth factor receptor (Homo sapiens, UniProt P00533). Briefly: Inhibition of human N-terminal DYKDDDD-tagged EGFR cytoplasmic domain (669 to 1210) expressed in baculovirus expression system incubated for 5 mins prior to [gamma-32P]ATP addition measured after 10 mins by scintillation counting analysis.
The next assay concerns BT-474. Description: Growth inhibition of human BT474 cells overexpressing HER2 after 5 days. Format: functional. Conditions: BT-474, 120 h.
Assay [2] concerns the target T1, Receptor tyrosine-protein kinase erbB-2 (Homo sapiens, UniProt P04626). Description: Inhibition of human N-terminal DYKDDDD-tagged HER2 cytoplasmic domain (676 to 1255) expressed in baculovirus expression system incubated for 5 mins prior to [gamma-32P]ATP addition measured after 10 mins by scintillation counting analysis.
The target in assay [3] is Dual specificity protein kinase TTK (Homo sapiens, UniProt P33981). Description: Inhibition of N-terminal FLAG-tagged TTK (unknown origin) expressed in baculovirus expression system incubated for 5 mins prior to [gamma-33P]ATP addition measured after 10 mins by scintillation counting analysis.
The target of assay [4] is Insulin-like growth factor 1 receptor (Homo sapiens, UniProt P08069). Description: Inhibition of IGF1R (unknown origin) incubated for 5 mins prior to ATP addition measured after 20 mins by Alphascreen assay.
Assay [5] addresses Platelet-derived growth factor receptor beta (Homo sapiens, UniProt P09619). Briefly: Inhibition of PDGFRbeta (unknown origin) incubated for 5 mins prior to ATP addition measured after 60 mins by Alphascreen assay. For orientation: Bead proximity is the source of the signal in Alpha formats.
Assay [6] concerns the target Receptor tyrosine-protein kinase erbB-4 (Homo sapiens, UniProt Q15303). Description: Inhibition of HER4 cytoplasmic domain (unknown origin) expressed in baculovirus expression system incubated for 5 mins prior to [gamma-32P]ATP addition measured after 10 mins by scintillation counting analysis.
For assay [7], the target named is Mitogen-activated protein kinase 3 (Homo sapiens, UniProt P27361). Description: Inhibition of N-terminal FLAG-tagged ERK1 (unknown origin) expressed in baculovirus expression system incubated for 5 mins prior to [gamma-33P]ATP addition measured after 60 mins by scintillation counting analysis.
Assay [8] addresses T2, Tyrosine-protein kinase Lyn (Homo sapiens, UniProt P07948). Briefly: Inhibition of LYNB (unknown origin) incubated for 5 mins prior to ATP addition measured after 10 mins by Alphascreen assay.
The target in assay [9] is Hepatocyte growth factor receptor (Homo sapiens, UniProt P08581). Briefly: Inhibition of c-MET (unknown origin) incubated for 5 mins prior to ATP addition measured after 10 mins by Alphascreen assay.
Assay [10] concerns the target Mitogen-activated protein kinase kinase kinase 1 (Homo sapiens, UniProt Q13233). Description: Inhibition of C-terminal FLAG-tagged MEKK (unknown origin) expressed in baculovirus expression system incubated for 5 mins prior to [gamma-33P]ATP addition measured after 60 mins by scintillation counting analysis.
Assay [11] addresses Dual specificity mitogen-activated protein kinase kinase 1 (Homo sapiens, UniProt Q02750). Description: Inhibition of N-terminal GST-fused MEK1 (unknown origin) incubated for 5 mins prior to [gamma-33P]ATP addition measured after 20 mins by scintillation counting analysis.
The target in assay [12] is Mitogen-activated protein kinase kinase kinase 5 (Homo sapiens, UniProt Q99683). Briefly: Inhibition of N-terminal FLAG-tagged ASK1 (unknown origin) expressed in baculovirus expression system incubated for 5 mins prior to [gamma-33P]ATP addition measured after 60 mins by scintillation counting analysis.
The target of assay [13] is Inhibitor of nuclear factor kappa-B kinase subunit beta (Homo sapiens, UniProt O14920). Description: Inhibition of C-terminal FLAG-tagged IKKbeta (unknown origin) expressed in baculovirus expression system incubated for 5 mins prior to [gamma-33P]ATP addition measured after 5 mins by scintillation counting analysis.
The target of assay [14] is Dual specificity mitogen-activated protein kinase kinase 5 (Homo sapiens, UniProt Q13163). Description: Inhibition of N-terminal FLAG-tagged MEK5 (unknown origin) expressed in baculovirus expression system incubated for 5 mins prior to [gamma-33P]ATP addition measured after 30 mins by scintillation counting analysis.
The target in assay [15] is Mitogen-activated protein kinase 8 (Homo sapiens, UniProt P45983). Briefly: Inhibition of N-terminal FLAG-tagged JNK1 (unknown origin) expressed in baculovirus expression system incubated for 5 mins prior to [gamma-33P]ATP addition measured after 60 mins by scintillation counting analysis.
The target in assay [16] is Mitogen-activated protein kinase 14 (Homo sapiens, UniProt Q16539). Description: Inhibition of N-terminal FLAG-tagged p38alpha (unknown origin) expressed in baculovirus expression system incubated for 5 mins prior to [gamma-33P]ATP addition measured after 60 mins by scintillation counting analysis.
Assay [17] concerns the target Tyrosine-protein kinase ZAP-70 (Homo sapiens, UniProt P43403). Description: Inhibition of ZAP70 (unknown origin) incubated for 5 mins prior to ATP addition measured after 10 mins by Alphascreen assay.
In assay [18] the target is Mast/stem cell growth factor receptor Kit (Homo sapiens, UniProt P10721). Description: Inhibition of c-kit (unknown origin) incubated for 5 mins prior to ATP addition measured after 20 mins by Alphascreen assay.
Assay [19] concerns the target Fibroblast growth factor receptor 3 (Homo sapiens, UniProt P22607). Description: Inhibition of FGFR3 (unknown origin) incubated for 5 mins prior to ATP addition measured after 10 mins by Alphascreen assay.
In assay [20] the target is T1, Receptor tyrosine-protein kinase erbB-2. Briefly: Pseudo-irreversible inhibition of human N-terminal DYKDDDD-tagged HER2 cytoplasmic domain (676 to 1255) expressed in baculovirus expression system at 10 times IC50 preincubated for 15 mins followed by 100 fold dilution measured after 16 hrs by Alphascreen assay.
The target of assay [21] is Platelet-derived growth factor receptor alpha (Homo sapiens, UniProt P16234). Briefly: Inhibition of PDGFRalpha (unknown origin) incubated for 5 mins prior to ATP addition measured after 30 mins by Alphascreen assay.
In the next assay the target is Insulin receptor (Homo sapiens, UniProt P06213). Description: Inhibition of InsR (unknown origin) incubated for 5 mins prior to ATP addition measured after 60 mins by Alphascreen assay.
In assay [22] the target is Tyrosine-protein kinase Lck (Homo sapiens, UniProt P06239). Briefly: Inhibition of LCK (unknown origin) incubated for 5 mins prior to ATP addition measured after 30 mins by Alphascreen assay.
Assay [23] has as its target Serine/threonine-protein kinase PLK1 (Homo sapiens, UniProt P53350). Description: Inhibition of N-terminal FLAG-tagged PLK (unknown origin) expressed in baculovirus expression system incubated for 5 mins prior to [gamma-33P]ATP addition measured after 40 mins by scintillation counting analysis.
In assay [24] the target is Cytoplasmic tyrosine-protein kinase BMX (Homo sapiens, UniProt P51813). Briefly: Inhibition of N-terminal FLAG-tagged full length BMX (unknown origin) expressed in baculovirus expression system incubated for 5 mins prior to ATP addition measured after 10 mins by Alphascreen assay.
In assay [25] the target is T2, Tyrosine-protein kinase Lyn. Briefly: Inhibition of LYNA (unknown origin) incubated for 5 mins prior to ATP addition measured after 10 mins by Alphascreen assay.
The next assay deals with Angiopoietin-1 receptor (Homo sapiens, UniProt Q02763). Briefly: Inhibition of TIE2 (unknown origin) incubated for 5 mins prior to ATP addition measured after 10 mins by Alphascreen assay.
In assay [26] the target is Fibroblast growth factor receptor 1 (Homo sapiens, UniProt P11362). Description: Inhibition of FGFR1 (unknown origin) incubated for 5 mins prior to ATP addition measured after 10 mins by Alphascreen assay.
For assay [27], the target named is Tyrosine-protein kinase CSK (Homo sapiens, UniProt P41240). Description: Inhibition of CSK (unknown origin) incubated for 5 mins prior to ATP addition measured after 10 mins by Alphascreen assay.
Assay [28] concerns the target Vascular endothelial growth factor receptor 2 (Homo sapiens, UniProt P35968). Briefly: Inhibition of N-terminal FLAG-tagged VEGFR2 cytoplasmic domain (unknown origin) incubated for 5 mins prior to ATP addition measured after 10 mins by Alphascreen assay.
Assay [29] has as its target Glycogen synthase kinase-3 beta (Homo sapiens, UniProt P49841). Briefly: Inhibition of N-terminal FLAG-tagged GSK3beta (unknown origin) expressed in baculovirus expression system incubated for 5 mins prior to [gamma-33P]ATP addition measured after 30 mins by scintillation counting analysis.
Assay [30] can be described thus: Inhibition of PKA (unknown origin) expressed in Escherichia coli expression system incubated for 5 mins prior to [gamma-33P]ATP addition measured after 10 mins by scintillation counting analysis. More on the design: species or system Homo sapiens.
The next assay concerns the target Aurora kinase B (Homo sapiens, UniProt Q96GD4). Briefly: Inhibition of N-terminal His6x-tagged aurora-B (unknown origin) expressed in baculovirus expression system incubated for 5 mins prior to [gamma-33P]ATP addition measured after 60 mins by scintillation counting analysis.
For assay [31], the target named is Serine/threonine-protein kinase B-raf (Homo sapiens, UniProt P15056). Briefly: Inhibition of wild type N-terminal FLAG-tagged B-raf (unknown origin) expressed in baculovirus expression system incubated for 5 mins prior to [gamma-33P]ATP addition measured after 20 mins by scintillation counting analysis.
Assay [32] deals with Vascular endothelial growth factor receptor 1 (Homo sapiens, UniProt P17948). Briefly: Inhibition of VEGFR1 (unknown origin) incubated for 5 mins prior to ATP addition measured after 5 mins by Alphascreen assay.
Assay [33] deals with Protein kinase C theta type (Homo sapiens, UniProt Q04759). Briefly: Inhibition of N-terminal FLAG-tagged PKCtheta (unknown origin) expressed in baculovirus expression system incubated for 5 mins prior to [gamma-33P]ATP addition measured after 60 mins by scintillation counting analysis.

By IC50 is commonly meant the concentration that gives 50% inhibition. Low values mean inhibition by little substance, high ones a need for much substance. What is called GI50 is the concentration at which growth is held to half of that of the control. Low values mean greater sensitivity of the cells, high ones lower sensitivity of the cells.

The structures appear in SMILES notation. Calls of active or inactive are those of the source. The rule behind the calls is not given here.

Chain of Epidermal growth factor receptor (P00533 whole entry, the tested form may be a part): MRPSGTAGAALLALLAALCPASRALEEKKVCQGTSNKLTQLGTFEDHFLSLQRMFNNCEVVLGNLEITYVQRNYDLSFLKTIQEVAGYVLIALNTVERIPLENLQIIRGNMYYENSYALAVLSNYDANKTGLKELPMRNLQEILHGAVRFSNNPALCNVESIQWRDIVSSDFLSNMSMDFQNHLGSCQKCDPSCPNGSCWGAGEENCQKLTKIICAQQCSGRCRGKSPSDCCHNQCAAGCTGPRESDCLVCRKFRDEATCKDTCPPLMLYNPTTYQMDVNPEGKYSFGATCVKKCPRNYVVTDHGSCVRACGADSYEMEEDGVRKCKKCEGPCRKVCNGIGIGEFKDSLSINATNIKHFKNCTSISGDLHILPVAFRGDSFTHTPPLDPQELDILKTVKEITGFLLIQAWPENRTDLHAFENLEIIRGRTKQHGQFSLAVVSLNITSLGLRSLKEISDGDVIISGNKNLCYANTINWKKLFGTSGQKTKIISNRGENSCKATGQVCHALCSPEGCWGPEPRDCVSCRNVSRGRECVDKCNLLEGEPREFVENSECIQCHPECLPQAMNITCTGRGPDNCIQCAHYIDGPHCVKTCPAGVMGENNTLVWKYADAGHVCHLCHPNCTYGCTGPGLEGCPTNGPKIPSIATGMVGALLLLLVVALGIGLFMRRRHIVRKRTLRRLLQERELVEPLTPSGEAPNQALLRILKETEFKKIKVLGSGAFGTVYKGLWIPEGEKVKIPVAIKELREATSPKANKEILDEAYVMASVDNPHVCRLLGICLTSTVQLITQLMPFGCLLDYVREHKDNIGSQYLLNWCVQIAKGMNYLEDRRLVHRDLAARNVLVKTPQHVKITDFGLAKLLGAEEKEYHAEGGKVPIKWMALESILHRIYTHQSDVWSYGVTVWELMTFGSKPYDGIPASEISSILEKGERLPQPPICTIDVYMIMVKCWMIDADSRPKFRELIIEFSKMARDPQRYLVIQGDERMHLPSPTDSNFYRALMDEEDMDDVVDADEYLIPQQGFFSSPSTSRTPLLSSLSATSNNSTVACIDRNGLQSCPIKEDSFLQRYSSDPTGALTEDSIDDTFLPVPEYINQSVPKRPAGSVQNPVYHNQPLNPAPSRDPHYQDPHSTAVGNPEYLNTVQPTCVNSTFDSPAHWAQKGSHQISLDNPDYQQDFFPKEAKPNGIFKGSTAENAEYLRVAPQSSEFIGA
T1 sequence (P04626 whole entry, the tested form may be a part): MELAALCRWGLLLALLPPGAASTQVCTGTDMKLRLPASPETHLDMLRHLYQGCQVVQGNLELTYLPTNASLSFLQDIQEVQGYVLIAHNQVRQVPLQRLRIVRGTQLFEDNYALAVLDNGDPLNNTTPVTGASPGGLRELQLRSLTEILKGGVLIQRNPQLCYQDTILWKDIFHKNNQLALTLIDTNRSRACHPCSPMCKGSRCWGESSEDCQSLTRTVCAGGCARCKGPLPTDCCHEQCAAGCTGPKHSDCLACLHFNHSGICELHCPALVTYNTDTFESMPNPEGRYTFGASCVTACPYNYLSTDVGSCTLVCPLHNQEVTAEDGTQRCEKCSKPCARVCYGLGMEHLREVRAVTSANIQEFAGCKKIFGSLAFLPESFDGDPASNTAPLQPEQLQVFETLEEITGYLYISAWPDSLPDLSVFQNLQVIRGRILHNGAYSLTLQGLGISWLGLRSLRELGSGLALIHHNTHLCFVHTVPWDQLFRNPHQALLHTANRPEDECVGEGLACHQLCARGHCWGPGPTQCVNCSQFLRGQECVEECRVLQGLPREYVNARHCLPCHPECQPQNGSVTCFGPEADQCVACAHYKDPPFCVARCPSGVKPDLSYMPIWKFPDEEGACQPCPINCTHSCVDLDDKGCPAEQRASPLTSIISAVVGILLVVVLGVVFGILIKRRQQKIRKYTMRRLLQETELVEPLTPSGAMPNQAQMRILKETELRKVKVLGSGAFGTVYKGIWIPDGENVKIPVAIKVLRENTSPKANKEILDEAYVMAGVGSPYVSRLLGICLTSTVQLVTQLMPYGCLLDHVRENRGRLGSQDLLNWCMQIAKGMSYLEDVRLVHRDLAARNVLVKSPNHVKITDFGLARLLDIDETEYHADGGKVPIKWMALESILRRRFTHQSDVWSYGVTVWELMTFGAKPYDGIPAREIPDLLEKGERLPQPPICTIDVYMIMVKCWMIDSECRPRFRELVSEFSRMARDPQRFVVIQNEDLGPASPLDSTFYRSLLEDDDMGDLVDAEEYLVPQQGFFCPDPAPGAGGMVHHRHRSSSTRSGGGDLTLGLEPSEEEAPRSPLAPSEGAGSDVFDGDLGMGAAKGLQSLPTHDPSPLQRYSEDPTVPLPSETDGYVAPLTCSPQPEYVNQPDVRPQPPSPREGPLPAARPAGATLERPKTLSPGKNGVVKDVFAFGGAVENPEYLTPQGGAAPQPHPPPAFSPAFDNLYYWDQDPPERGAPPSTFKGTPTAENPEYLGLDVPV
T2 sequence (P07948 whole entry): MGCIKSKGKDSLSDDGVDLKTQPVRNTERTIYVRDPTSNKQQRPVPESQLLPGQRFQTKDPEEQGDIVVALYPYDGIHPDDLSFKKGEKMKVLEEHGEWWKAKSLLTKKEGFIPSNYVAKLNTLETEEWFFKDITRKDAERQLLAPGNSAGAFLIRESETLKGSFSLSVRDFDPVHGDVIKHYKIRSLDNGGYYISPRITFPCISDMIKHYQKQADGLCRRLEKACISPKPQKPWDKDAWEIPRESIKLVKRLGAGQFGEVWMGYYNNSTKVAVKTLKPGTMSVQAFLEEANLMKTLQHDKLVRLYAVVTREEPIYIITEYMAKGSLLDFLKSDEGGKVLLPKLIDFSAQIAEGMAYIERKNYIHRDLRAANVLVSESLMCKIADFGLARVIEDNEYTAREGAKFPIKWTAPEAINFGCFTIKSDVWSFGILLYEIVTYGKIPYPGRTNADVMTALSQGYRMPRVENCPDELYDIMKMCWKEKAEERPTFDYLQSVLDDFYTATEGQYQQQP
Chain of Inhibitor of nuclear factor kappa-B kinase subunit beta (O14920 whole entry): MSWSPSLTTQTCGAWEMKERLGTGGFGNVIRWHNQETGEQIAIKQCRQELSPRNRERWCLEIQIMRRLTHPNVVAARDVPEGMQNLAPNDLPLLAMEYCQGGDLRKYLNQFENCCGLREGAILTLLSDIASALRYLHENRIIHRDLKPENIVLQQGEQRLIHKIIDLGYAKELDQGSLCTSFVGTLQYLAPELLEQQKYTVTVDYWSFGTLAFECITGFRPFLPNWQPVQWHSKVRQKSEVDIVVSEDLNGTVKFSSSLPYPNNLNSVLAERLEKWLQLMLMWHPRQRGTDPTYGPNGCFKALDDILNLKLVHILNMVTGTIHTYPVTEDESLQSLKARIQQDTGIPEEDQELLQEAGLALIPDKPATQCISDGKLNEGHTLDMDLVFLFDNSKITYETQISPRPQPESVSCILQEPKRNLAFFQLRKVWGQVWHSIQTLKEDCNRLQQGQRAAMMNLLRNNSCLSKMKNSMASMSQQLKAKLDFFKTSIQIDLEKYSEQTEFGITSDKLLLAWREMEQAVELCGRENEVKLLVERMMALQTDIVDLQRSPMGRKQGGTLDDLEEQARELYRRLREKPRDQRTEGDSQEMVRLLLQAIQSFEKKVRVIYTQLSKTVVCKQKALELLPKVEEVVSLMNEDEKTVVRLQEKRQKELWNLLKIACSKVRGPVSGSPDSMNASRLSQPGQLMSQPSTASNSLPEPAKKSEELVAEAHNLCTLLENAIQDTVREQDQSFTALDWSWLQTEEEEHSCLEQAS
Chain of Mitogen-activated protein kinase kinase kinase 5 (Q99683 whole entry): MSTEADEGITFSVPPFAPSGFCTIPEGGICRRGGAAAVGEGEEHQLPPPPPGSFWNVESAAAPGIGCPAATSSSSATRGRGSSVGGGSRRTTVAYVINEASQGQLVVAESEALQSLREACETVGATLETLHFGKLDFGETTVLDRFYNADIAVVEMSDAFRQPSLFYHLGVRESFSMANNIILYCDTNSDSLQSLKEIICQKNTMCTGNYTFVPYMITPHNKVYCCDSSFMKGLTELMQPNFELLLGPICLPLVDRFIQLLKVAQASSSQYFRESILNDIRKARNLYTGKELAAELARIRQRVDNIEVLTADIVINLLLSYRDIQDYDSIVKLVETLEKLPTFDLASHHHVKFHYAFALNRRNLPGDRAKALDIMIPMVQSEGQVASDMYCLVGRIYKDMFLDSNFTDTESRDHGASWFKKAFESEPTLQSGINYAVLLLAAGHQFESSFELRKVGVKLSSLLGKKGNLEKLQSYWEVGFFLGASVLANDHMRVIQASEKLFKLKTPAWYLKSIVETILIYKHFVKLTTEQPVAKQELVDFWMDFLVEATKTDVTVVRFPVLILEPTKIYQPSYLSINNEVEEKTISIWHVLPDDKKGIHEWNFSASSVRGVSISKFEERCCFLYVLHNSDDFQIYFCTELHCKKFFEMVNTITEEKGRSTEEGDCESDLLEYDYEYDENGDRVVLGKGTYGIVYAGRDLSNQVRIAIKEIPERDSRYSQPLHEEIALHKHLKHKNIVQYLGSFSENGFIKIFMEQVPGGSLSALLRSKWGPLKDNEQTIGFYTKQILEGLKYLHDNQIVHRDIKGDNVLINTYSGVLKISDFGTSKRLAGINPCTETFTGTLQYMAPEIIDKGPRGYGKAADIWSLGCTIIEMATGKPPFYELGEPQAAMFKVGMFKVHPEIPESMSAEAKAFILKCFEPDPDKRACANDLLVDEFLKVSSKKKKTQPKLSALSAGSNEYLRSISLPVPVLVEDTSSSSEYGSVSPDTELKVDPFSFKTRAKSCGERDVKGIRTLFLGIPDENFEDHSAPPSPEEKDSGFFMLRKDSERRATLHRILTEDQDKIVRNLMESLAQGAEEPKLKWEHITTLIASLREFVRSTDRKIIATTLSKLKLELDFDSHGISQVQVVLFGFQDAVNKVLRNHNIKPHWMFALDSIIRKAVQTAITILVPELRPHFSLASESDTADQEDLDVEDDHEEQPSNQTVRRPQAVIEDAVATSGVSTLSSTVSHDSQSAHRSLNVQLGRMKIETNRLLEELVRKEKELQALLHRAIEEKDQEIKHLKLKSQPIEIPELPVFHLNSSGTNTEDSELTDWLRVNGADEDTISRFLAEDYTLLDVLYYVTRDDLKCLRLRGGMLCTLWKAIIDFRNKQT

On to `COC(=O)C1=Cc2c(ncnc2Nc2ccc(Oc3cccc4sccc34)c(Cl)c2)NCC1`, for which the values for the IC50 in assay [1] and in assay [2] were 0.044 µM and 0.018 µM, respectively. In addition, in the assay on BT-474, growth was halved (GI50) at 0.19 µM.

As for `CS(=O)(=O)CCNC(=O)C1=Cc2c(ncnc2Nc2ccc(Oc3cccc(C(F)(F)F)c3)c(Cl)c2)NCC1`, the half-inhibitory concentration (IC50) in assay [1] came to 0.075 µM; in [2] it was 0.065 µM. In addition, growth in the assay with BT-474 was halved (GI50) at 0.62 µM.

`COC(=O)C1=Cc2c(ncnc2Nc2ccc(Oc3cccc(C(F)(F)F)c3)c(Cl)c2)NCC1`: the results for the IC50 in assay [1] and in [2] were 0.11 µM and 0.1 µM, respectively. The same molecule had a GI50 in the assay with BT-474 of 2 µM.

With `CC(C)(O)CC(=O)NCCn1ccc2ncnc(Nc3ccc(Oc4cccc(C(F)(F)F)c4)c(Cl)c3)c21` [TAK-285], the GI50 with BT-474 amounted to 0.017 µM.

As to `CS(=O)(=O)CCNC(=O)C1=Cc2c(ncnc2Nc2ccc(Oc3cccc4sccc34)c(Cl)c2)NCC1`, the IC50 in [1] was determined as 0.047 µM; in assay [2] it was 0.03 µM. The molecule further returned a GI50 in the assay on BT-474 of 0.025 µM.

`O=C(NCCO)C1=Cc2c(ncnc2Nc2ccc(Oc3cccc4sccc34)c(Cl)c2)NCC1`: the IC50 was greater than 10 µM in assay [3]; greater than 10 µM in assay [4]; greater than 10 µM in assay [5]; 0.24 µM in assay [6]; greater than 10 µM in [7]; 3 µM in [8]. Besides, the IC50 in [9] was 5.6 µM; in [10], greater than 10 µM; in assay [11] it was greater than 10 µM; in [12], greater than 10 µM; in assay [13], greater than 10 µM; in assay [14], 0.87 µM. Also, the IC50 in assay [15] was greater than 10 µM; in assay [16], 1.7 µM; in assay [17] it was greater than 10 µM; in [18], greater than 10 µM; in assay [19], greater than 10 µM; in assay [2] it was 0.024 µM. The IC50 in assay [21] is greater than 10 µM; on Insulin receptor, greater than 10 µM; in [22], 3.2 µM; in assay [23], greater than 10 µM; in assay [24], greater than 10 µM; in assay [25], 9.8 µM. For the same molecule, the IC50 (against Angiopoietin-1 receptor; in assay [26]; in assay [27]; in assay [28]; in assay [29]; in [30]) was greater than 10 µM each time. The IC50 against Aurora kinase B was greater than 10 µM; in assay [31], 0.23 µM; in assay [32], greater than 10 µM; in [33] it was greater than 10 µM. Moreover, the GI50 in the assay on BT-474 was determined as 0.018 µM. Also, in assay [20], the inhibition result is “Active”.

For the molecule `O=C(NCCO)C1=Cc2c(ncnc2Nc2ccc(Oc3cccc(C(F)(F)F)c3)c(Cl)c2)NCC1`, the values for the IC50 in [1] and in [2] were 0.038 µM and 0.029 µM, respectively. This molecule also returned a 50% growth inhibitory concentration (GI50) with BT-474 of 0.63 µM.
